# According to US20050272647A1, “Arthrodial cartilage extracellular matrix degradation inhibitor” (priority 2002, published 2005):
# Counter-ions that a name gives are not always drawn.
# How the values were obtained:
# [1] = tested on: rabbit knee articular cartilage primary culture cells; test: PG destruction inhibitory activity in rabbit cartilage primary culture cell (stimulation with retinoic acid); settings: Oryctolagus cuniculus, 48 h, read-out: PG degradation inhibition (%)
# Procedure: After a rabbit (Japanese white race, male, 1.0 to 1.5 kg) was killed under excessive anesthesia, the knee joint was taken out and the cartilage layer on the articular surface was abraded and cut finely. […] After 3 days, the medium was replaced by 200 μl of DMEM/10% FBS medium containing 50 μg/ml ascorbic acid (hereinafter referred to as ascorbic acid medium) and two days of culture was further repeated twice. Thereafter, the rabbit knee articular cartilage primary culture cells were cultured in 200 μl of the ascorbic acid medium containing Na2 35SO4 of a final concentration of 10 μCi/ml for 3 days to achieve labeling, followed by washing with 200 μl of the ascorbic acid medium three times and 1 day of culture in 200 μl of the ascorbic medium. The culture was stimulated with all-trans retinoic acid (manufactured by Sigma) of a final concentration of 1 μM. A culture supernatant after 48 hours was recovered in an each amount of 20 μl and radioactivity was measured using Topcount (manufactured by Packard). The test compound was added simultaneously with the start of the stimulation and a PG degradation inhibitory activity was calculated as percentage where a group to which retinoic acid was not added was defined as 100% and a group to which retinoic acid was added was defined as 0%.
# HDAC = settings: literature value, cited from earlier work; for IC50: read-out: HDAC inhibitory activity (IC50 value); for HDAC inhibitory activity (order of magnitude): Nat. Rev. Drug Discov. 2002
# [2] = tested on: rabbit cartilage primary culture cells; test: PG destruction inhibitory activity in rabbit cartilage primary culture cell (stimulation with IL-1); settings: Oryctolagus cuniculus, 48 h, read-out: PG degradation inhibition (%)
# Procedure: After a rabbit (Japanese white race, male, 1.0 to 1.5 kg) was killed under excessive anesthesia, the knee joint was taken out and the cartilage layer on the articular surface was abraded and cut finely. […] After 3 days, the medium was replaced by 200 μl of DMEM/10% FBS medium containing 50 μg/ml ascorbic acid (hereinafter referred to as ascorbic acid medium) and two days of culture was further repeated twice. Thereafter, the rabbit knee articular cartilage primary culture cells were cultured in 200 μl of the ascorbic acid medium containing Na2 35SO4 of a final concentration of 10 μCi/ml for 3 days to achieve labeling, followed by washing with 200 μl of the ascorbic acid medium three times and 1 day of culture in 200 μl of the ascorbic medium.
# They were stimulated with human IL-1β (manufactured by R&D System) of a final concentration of 10 ng/ml. A culture supernatant after 48 hours was recovered in an each amount of 20 μl and radioactivity was measured using Topcount (manufactured by Packard). The test compound was added simultaneously with the start of the stimulation and a PG degradation inhibitory activity was calculated as percentage where a group to which IL-1 was not added was defined as 100% and a group to which IL-1 was added was defined as 0%.
# [3] = tested on: histone deacetylase fraction; test: HDAC inhibitory activity, [3H]acetylhistone and histone deacetylase fraction (method of Yoshida et al.); assay type: biochemical; settings: at 30 nM
# Procedure: Specifically, the measurement can be conducted, using [^3H]acetylhistone and a histone deacetylase fraction prepared by the method described in the above reference, adding a test compound to a reaction solution containing [^3H]acetylhistone and DTT, mixing the histone deacetylase fraction after 1 hour of pre-incubation at room temperature, reacting them for 2 hours at room temperature, adding 1M hydrochloric acid and ethyl acetate thereto, and then measuring radioactivity in the ethyl acetate layer separated by centrifugation by a scintillation counter.
smiles,measurement,setting,value
CCC(=O)CCCCC[C@@H]1NC(=O)[C@H]2CCCCN2C(=O)[C@H]([C@@H](C)CC)NC(=O)[C@H](Cc2cn(OC)c3ccccc23)NC1=O [Apicidin],inhibition at 0.03 µM,[1],25%
same,inhibition at 0.3 µM,[1],92%
"CCCC(=O)O [Butyric acid (Na salt), Butyric acid]",IC50,HDAC,280000 nM
same,inhibition at 300 µM,[1],27%
same,inhibition at 3000 µM,[1],93%
same,inhibition at 5000 µM,[2],78%
CC1NC(=O)CC2/C=C/CCSSCC(NC1=O)C(=O)NC(C(C)C)C(O)CC(=O)O2 (centres unmarked) [Compound A],HDAC inhibition,[3],about 85%
same,inhibition at 0.001 µM,[1],20%
same,inhibition at 0.01 µM,[1],51%
same,inhibition at 0.1 µM,[1],93%
same,inhibition at 1 µM,[1],98%
same,inhibition at 0.0003 µM,[2],6%
same,inhibition at 0.003 µM,[2],39%
same,inhibition at 0.03 µM,[2],61%
C/C=C1\NC(=O)[C@H]2CSSCC/C=C/[C@H](CC(=O)N[C@H](C(C)C)C(=O)N2)OC(=O)[C@H](C(C)C)NC1=O [FK228],inhibition at 0.01 µM,[1],39%
same,inhibition at 0.1 µM,[1],97%
same,inhibition at 0.03 µM,[2],97%
Nc1ccccc1NC(=O)c1ccc(CNC(=O)OCc2cccnc2)cc1 [MS-27-275],IC50,HDAC,2000 nM
O=C(/C=C/c1ccc(CN(CCO)CCc2c[nH]c3ccccc23)cc1)NO [NVP-LAQ824],IC50,HDAC,30 nM
same,inhibition at 0.03 µM,[1],26%
same,inhibition at 0.3 µM,[1],90%
CC(/C=C/C(=O)NO)=C\[C@@H](C)C(=O)c1ccc(N(C)C)cc1 [Trichostatin A],IC50,HDAC,2.1 nM
same,inhibition at 0.1 µM,[1],40%
same,inhibition at 1 µM,[1],58%
"CCCC(CCC)C(=O)O [Valproic acid (Na salt), Valproic acid]",inhibition at 300 µM,[1],49%
same,inhibition at 1000 µM,[1],46%
same,inhibition at 3000 µM,[1],79%
CCCC(CCC)C(=O)O [Valproic acid],HDAC inhibitory activity (order of magnitude),HDAC,mM order
CCCC(=O)O [butyric acid],HDAC inhibitory activity (order of magnitude),HDAC,mM order
